From US20090075313A1, “Split protein fragments, split protein systems, methods of making split protein systems, and methods of using split protein systems” (Stanford University, priority 2007, published 2009)
Where two headings read alike, the source gives them in different places.

How the values were obtained:
[1] = tested on: human estrogen receptor ligand-binding domain (hER-LBD); experiment: intramolecular protein folding sensor (split TK fragments flanking ER-LBD), TK enzyme uptake in 293T cells; type: cell-based
Procedure: FIG. 2b illustrates a schematic diagram of the intramolecular folding sensor construct with the split TK fragments on either side of the estrogen receptor ligand binding domain (ER-LBD), and each construct was made by cloning into a pcDNA3.1 (+) plasmid backbone, under control of a CMV promoter. […] The error bar is the standard error of the mean for three samples.
All experiments were conducted with comparison to a positive control derived from the activity of intact TK, and a mock transfection acting as a negative control.

[2] = tested on: 293T cells stably expressing nTK(V119C)-FRB plus FKBP12-cTK; experiment: microPET imaging with [18F]-FHBG of subcutaneous 293T xenografts in living mice; type: in vivo
Description: The signal from each implant was quantified directly from the microPET images to determine the % ID/g for the FHBG probe. […] The animals were repeatedly imaged on day 1 (before rapamycin), day 2 (one dose post rapamycin) and day 5 (3 doses post rapamycin) of this imaging protocol, i.e. after 1 week of initial xenograft growth. […] In another group of 4 mice, xenografts expressing nTK(V119C)-FRB plus FKBP12-cTK were compared with control implants stably expressing nTK plus cTK only (also in a single vector).
All animal handling and care was performed in accordance with Stanford University Animal Research Committee guidelines. […] The cells were allowed to grow as tumors for 7 days (to ˜0.3-0.4 cm in diameter). On day 8 mice were tail vein injected with 200 μCi of [^18F]-FHBG after undergoing anesthesia with 2% isoflurane in oxygen at 2 L/min. Three hours later, mice were microPET imaged in a spread prone position in a FOCUS microPET scanner (Concorde Microsystems, Knoxville, Tenn.). […] Immediately after imaging the animals were intraperitoneally injected with 50 μg of rapamycin; 24 h later all the animals were re-subjected to microPET imaging as mentioned above. The animals were further injected with intraperitoneal 50 μg rapamycin for two more days at 24 h intervals and subjected to repeat microPET imaging. In a separate cohort of 4 control mice, the above temporal imaging studies were performed in an identical fashion except that no rapamycin was administered. […] This % ID/g is a measure of the amount of tracer accumulated in a given tissue site normalized to the injected amount and to the mass of the tissue examined. […] For statistical analysis, the 2-tailed Student t-test was used. Differences were considered significant at P<0.05.

FM (F36M) mutant FKBP12 = FM (F36M) mutant FKBP12 (Homo sapiens, UniProt P62942, F37M)
Sequence of FM (F36M) mutant FKBP12 (P62942 whole entry F37M): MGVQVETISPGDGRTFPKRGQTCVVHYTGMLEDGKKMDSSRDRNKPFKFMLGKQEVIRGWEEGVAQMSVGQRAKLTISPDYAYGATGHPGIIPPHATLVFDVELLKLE
Description: (§1) Twenty-four hours later we added FK506 to these cells and, using an in vitro [8-^3H]Penciclovir cell uptake assay, measured either the time- or dose-dependent changes in homodimer dissociation and consequent diminished TK complementation.
as §1

FKBP12 = FKBP12 (Homo sapiens, UniProt P62942); details: stable 293T cells, with 40 nM rapamycin, 36 h
Sequence of FKBP12 (P62942 whole entry, added parts left off): as the sequence (P62942 whole entry F37M) above, with M37F counted along it

cells = details: 40 nM of rapamycin per well; cited from earlier work
HSV1-sr39TK = HSV1-sr39TK (Human herpesvirus 1, UniProt Q9QNF7, A168F/F161L/I160F/L159I/L169M); experiment: self-complementation of split TK fragments without attached proteins, TK enzyme uptake in 293T cells; type: cell-based, herpes simplex virus type 1
Description: To confirm or refute this finding we performed a separate PCA study using another pair of known interacting proteins, after replacing FRB and FKBP12 with Id and MyoD respectively (FIG. 2a, and FIG. 12). […] We tested the interaction of Id and MyoD upon transient co-expression of the fusion proteins nTK-Id and MyoD-cTK in 293T cells, followed by an in vitro TK enzyme cellular uptake assay to detect dimerization-assisted complementation of the TK fragments. Again, this same orientation of chimeras using Id and MyoD was used previously in PCAs with split Firefly luciferase and Renilla luciferase. We compared this with complementation obtained using the previous chimeras containing FRB and FKBP12, before and after addition of rapamycin. As negative controls we also assayed for TK activity upon single- and co-expression of nTK and cTK fragments without any attached proteins to check whether any measured TK activity might originate in either the N-terminal or C-terminal fragments of TK alone, or perhaps by their spontaneous self-complementation even without attached proteins. The results, shown in FIG. 12, confirmed the findings described above using the FRB/FKBP12/rapamycin system (FIGS. 9, 10, 12).

FKBP12-cTK = FKBP12-cTK (human; herpes simplex virus type 1, UniProt P62942 1-108); experiment: cell-based or functional assay
[3] = 293T cells, 24 h treatment, P<0.05

Molecule: 4-hydroxytamoxifen [4-OHT]
- level of intramolecular-folding-assisted complementation versus carrier control-treated cells [1]: significantly higher

Molecule: Nc1nc2c(ncn2CCC(CO)C[18F])c(=O)[nH]1 (stereo not shown) [FHBG, 9-(4-[^18F]-fluoro-3-hydroxymethylbutyl)-guanine]
- probe % ID/g in shoulder tumors ([2]; animals imaged in the prone position): 1.02 % ID/g
- probe % ID/g in shoulder tumors ([2]; animals imaged in the supine position): 0.89 % ID/g
- FHBG accumulation in control tumors ([2]; control implants stably expressing nTK plus cTK only, fifth day, with rapamycin): minimal
- mean % ID/g for FHBG accumulation, background ([2]; mock transfected cells): 0.28±0.10 % ID/g
- mean % ID/g for FHBG accumulation ([2]; tumor of cells transfected with nTK(V119C)-FRB plus FKBP12-cTK, after 5 days of daily rapamycin): 4.37±1.74 % ID/g

Molecule: Cc1c(-c2ccc(O)cc2)nn(-c2ccc(O)cc2)c1-c1ccc(OCCN2CCCCC2)cc1 [MPP, methyl piperidinylethoxy pyrazole]
- level of intramolecular-folding-assisted complementation versus carrier control-treated cells [1, 3]: significantly higher

Molecule: CCCc1c(-c2ccc(O)cc2)nn(-c2ccc(O)cc2)c1-c1ccc(O)cc1 [PPT, 1,3,5-tris(4-hydroxyphenyl)-4-propyl-1H-pyrazole]
- level of intramolecular-folding-assisted complementation versus carrier control-treated cells [1, 3]: significantly higher

Molecule: CC[C@@H]1/C=C(\C)C[C@H](C)C[C@H](OC)[C@H]2O[C@@](O)(C(=O)C(=O)N3CCCC[C@H]3C(=O)O[C@H](/C(C)=C/[C@@H]3CC[C@@H](O)[C@H](OC)C3)[C@H](C)[C@@H](O)CC1=O)[C@H](C)C[C@@H]2OC [ascomycin]
- dissociation of complexes (fraction) (FM (F36M) mutant FKBP12; Five μM FK506, within 30 min): about two-thirds
- change of TK activity with increasing doses (FM (F36M) mutant FKBP12; up to 5 μM, after 24 hr of exposure): incremental reduction of TK activity
- effect of increasing concentration on TK complementation (FKBP12): reduction in TK complementation
- smallest concentration required to initiate the competitive inhibition of rapamycin (FKBP12; 0 to 16 μM): 0.5 µM

Molecule: CO[C@H]1C[C@@H]2CC[C@@H](C)[C@@](O)(O2)C(=O)C(=O)N2CCCC[C@H]2C(=O)O[C@H]([C@H](C)C[C@@H]2CC[C@@H](O)[C@H](OC)C2)CC(=O)[C@H](C)/C=C(\C)[C@@H](O)[C@@H](OC)C(=O)[C@H](C)C[C@H](C)/C=C/C=C/C=C/1C [rapamycin]
- toxicity to cells (cells): non-toxic

B1: nTK: N-terminal TK fragment comprising the amino acids Met-1 to Thr-265 (protein)
chain: MASYPCHQHASAFDQAARSRGHSNRRTALRPRRQQEATEVRLEQKMPTLLRVYIDGPHGMGKTTTTQLLVALGSRDDIVYVPEPMTYWRVLGASETIANIYTTQHRLDQGEISAGDAAVVMTSAQITMGMPYAVTDAVLAPHIGGEAGSSHAPPPALTLIFDRHPIAALLCYPAARYLMGSMTPQAVLAFVALIPPTLPGTNIVLGALPEDRHIDRLAKRQRPGERLDLAMLAAIRRVYGLLANTVRYLQCGGSWREDWGQLSGT
- TK activity upon single- or co-expression of fragments without attached proteins (HSV1-sr39TK): no activity

B2: cTK: C-terminal TK fragment comprising the amino acids Ala-266 to Asn-376 (protein)
chain: AVTPQGAEPQSNAGPRPHIGETLFTLFRAPELLAPNGDLYNVFAWALDVLAKRLRPMHVFILDYDQSPAGCRDALLQLTSGMVQTHVTTPGSIPTICDLARTFAREMGEAH
- TK activity upon single- or co-expression of fragments without attached proteins (HSV1-sr39TK): no activity

B3: nTK-FRB (other)
chain: MASYPCHQHASAFDQAARSRGHSNRRTALRPRRQQEATEVRLEQKMPTLLRVYIDGPHGMGKTTTTQLLVALGSRDDIVYVPEPMTYWRVLGASETIANIYTTQHRLDQGEISAGDAAVVMTSAQITMGMPYAVTDAVLAPHIGGEAGSSHAPPPALTLIFDRHPIAALLCYPAARYLMGSMTPQAVLAFVALIPPTLPGTNIVLGALPEDRHIDRLAKRQRPGERLDLAMLAAIRRVYGLLANTVRYLQCGGSWREDWGQLSGTGGGGSILWHEMWHEGLEEASRLYFGERNVKGMFEVLEPLHAMMERGPQTLKETSFNQAYGRDLMEAQEWCRKYMKSGNVKDLTQAWDLYYHVFRRISK
- complemented TK activity in the absence of rapamycin, against mock transfection, 293T cells (FKBP12-cTK): 2.3 fold above mock transfection levels
- relative gain in complemented TK activity after rapamycin administration, 293T cells (FKBP12-cTK): ~3 fold induction
- split TK complementation in SKBr3 human breast cancer cells, with rapamycin (FKBP12-cTK): ~3 fold rise
- split TK complementation in SKOV3 human ovarian cancer cells, with rapamycin (FKBP12-cTK): ~3 fold rise
